This note sets out measurements from publication PMC7452424, “Discovery and characterisation of circular bacteriocin plantacyclin B21AG from Lactiplantibacillus plantarum B21” (Heliyon, 2020).

The format of this data set is physicochemical. As for the experimental part:
The L. plantarum B21 bacteriocin was purified from the CFS by a three-step protocol process consisting of concentration, n-butanol extraction and cation exchange chromatography by Fast Protein Liquid Chromatography (FPLC). All purification steps were carried out at room temperature. L. plantarum B21 was used as an inoculum 2% (v/v) into 165 mL of MRS broth and incubated at 30 °C for 24 h without shaking. The CFS was prepared as previously described. The CFS was concentrated to 70 mL through a 10 kDa polyethersulfone membrane discs (Generon, UK) using an Amicon UF cell (Model 8200, Millipore, USA). The concentrated CFS was subjected to n-butanol extraction according to Abo-Amer with a few modifications. The concentrated L. plantarum B21 CFS was extracted twice in 1:1 volume of water saturated n-butanol and centrifuged at 10,000 × g for 10 min. The n-butanol fraction containing the bacteriocin was freeze dried (FDU-8612, Operon Co. Ltd, Korea) to remove the solvent. The dried n-butanol fraction was redissolved in 20 mM sodium phosphate buffer, pH 6.0. Both the n-butanol and aqueous fractions were examined for antimicrobial activity. […] The concentration of the bacteriocin was measured after each step of protein purification using Pierce™ BCA Protein Assay Kit (Thermo Fisher Scientific, USA) according to manufacturer's instruction.

“cyclo(AAAGALGGTAAIVWIARQFGVHLTTKLTQKALDLLSSGASLGTVAAVILGVTLPGWAV) [plantacyclin B21AG]”: the Solubility in butanol result is on record as “remarkable solubility”.
